Structures can show the parent of a compound that is named as a salt.
The molecules below were run against T1, MPO (purified from human polynuclear leukocytes) (Homo sapiens, UniProt P05164) (assay: MPO Amplex Red Activity Assay). Conditions: Table 1, 2 μM H2O2, pH 7.4.
T1 construct: purified from human polynuclear leukocytes; purchased Calbiochem/EMD Biosciences; host or cells: human polynuclear leukocytes (natural source)
Type: biochemical
Summary of the method: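 Human leukocyte MPO […] oxidises 30 μM Amplex Red with 2 μM H2O2 in 50 mM NaPi pH 7.4, 150 mM NaCl, 1 mM DTPA, 2% DMSO. Resorufin fluorescence (ex 530/em 580 nm) read every 20 s, minus catalase background. kobs from the first 600 s, corrected for auto-inactivation, fit versus [I] for kinact/KI.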

T1 sequence (P05164 279-745 limits assumed): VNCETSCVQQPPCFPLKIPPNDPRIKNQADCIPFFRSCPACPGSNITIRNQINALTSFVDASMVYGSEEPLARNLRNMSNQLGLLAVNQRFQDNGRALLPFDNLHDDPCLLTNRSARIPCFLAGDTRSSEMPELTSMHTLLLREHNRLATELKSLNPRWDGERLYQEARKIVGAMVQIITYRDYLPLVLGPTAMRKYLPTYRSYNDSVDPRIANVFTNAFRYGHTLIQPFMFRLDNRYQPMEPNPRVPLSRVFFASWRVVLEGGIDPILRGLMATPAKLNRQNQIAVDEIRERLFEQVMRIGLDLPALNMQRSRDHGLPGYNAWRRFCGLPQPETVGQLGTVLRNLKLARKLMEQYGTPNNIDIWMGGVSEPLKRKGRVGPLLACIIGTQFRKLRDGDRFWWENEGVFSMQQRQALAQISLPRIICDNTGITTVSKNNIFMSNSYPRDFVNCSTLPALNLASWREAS
T1 sequence (P05164 165-273 limits assumed): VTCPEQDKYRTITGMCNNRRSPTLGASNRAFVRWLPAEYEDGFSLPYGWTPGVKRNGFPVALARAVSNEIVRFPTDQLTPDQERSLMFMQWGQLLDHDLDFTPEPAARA

SMILES | MPO kinact/Ki
COCCn1c(-c2ccc(C#N)cc2OC)cc(=O)[nH]c1=S [Example 70, 3-methoxy-4-[3-(2-methoxyethyl)-6-oxo-2-thioxo-1,2,3,6-tetrahydro-pyrimidin-4-yl]benzonitrile] | 1590 1/s per M
COc1ccc(-c2cc(=O)[nH]c(=S)n2CCO)cc1 [Example 12, 1-(2-hydroxyethyl)-6-(4-methoxyphenyl)-2-thioxo-2,3-dihydropyrimidin-4(1H)-one] | 5010 1/s per M
Cl.NCCCOc1ccccc1-c1cc(=O)[nH]c(=S)n1CCN [Example 79, 1-(2-aminoethyl)-6-[2-(3-aminopropoxy)phenyl]-2-thioxo-2,3-dihydropyrimidin-4(1H)-one hydrochloride] | 1580 1/s per M
COc1cc(OC)c(-c2cc(=O)[nH]c(=S)n2CCN=C(N)N)cc1OC [Example 138, 2-{2-[4-oxo-2-thioxo-6-(2,4,5-trimethoxyphenyl)-3,4-dihydropyrimidin-1(2H)-yl]ethyl}guanidine hydrochloride] | 4530 1/s per M
COc1ccc(-c2cc(=O)[nH]c(=S)n2Cc2ncn[nH]2)c(OC)c1 [Example 209, 6-(2,4-dimethoxyphenyl)-2-thioxo-1-(1H-1,2,4-triazol-5-ylmethyl)-2,3-dihydropyrimidin-4(1H)-one] | 4360 1/s per M
COc1ncc(C)cc1-c1cc(=O)[nH]c(=S)n1CCN [Example 19, 1-(2-aminoethyl)-6-(2-methoxy-5-methylpyridin-3-yl)-2-thioxo-2(3-dihydropyrimidin-4(1H)-one trifluoroacetate] | 1960 1/s per M
NC(=O)Cn1c(-c2cccc3ccoc23)cc(=O)[nH]c1=S [Example 31, 2-[6-(1-benzofuran-7-yl)-4-oxo-2-thioxo-3,4-dihydropyrimidin-1(2H)-yl]acetamide] | 7680 1/s per M
COCCn1c(-c2c[nH]c3ccccc23)cc(=O)[nH]c1=S [Example 33, 6-(1H-indol-3-yl)-1-(2-methoxyethyl)-2-thioxo-2,3-dihydropyrimidin-4(1H)-one] | 4520 1/s per M
COc1ccc(C)cc1-c1cc(=O)[nH]c(=S)n1CCO [Example 161, 1-(2-hydroxyethyl)-6-(2-methoxy-5-methylphenyl)-2-thioxo-2,3-dihydropyrimidin-4(1H)-one] | 29600 1/s per M
COc1ccc(-c2cc(=O)[nH]c(=S)n2CCCCO)c(OC)c1 [Example 196, 6-(2,4-dimethoxyphenyl)-1-(4-hydroxybutyl)-2-thioxo-2,3-dihydropyrimidin-4(1H)-one] | 5640 1/s per M
COc1ccc(-c2cc(=O)[nH]c(=S)n2CCC(=N)N)c(OC)c1 [Example 187, 3-[6-(2,4-dimethoxyphenyl)-4-oxo-2-thioxo-3,4-dihydropyrimidin-1(2H)-yl]propanimidamide trifluoroacetate] | 5640 1/s per M
COc1ccccc1-c1cc(=O)[nH]c(=S)n1CCOC(C)C [Example 173, 1-(2-isopropoxyethyl)-6-(2-methoxyphenyl)-2-thioxo-2,3-dihydropyrimidin-4(1H)-one] | 2910 1/s per M
CCOc1ccccc1-c1cc(=O)[nH]c(=S)n1CCOC(C)C [Example 104, 6-(2-ethoxyphenyl)-1-(2-isopropoxyethyl)-2-thioxo-2,3-dihydropyrimidin-4(1H)-one] | 1210 1/s per M
COCCn1c(-c2ccccc2OC(C)C)cc(=O)[nH]c1=S [Example 328, 6-(2-isopropoxyphenyl)-1-(2-methoxyethyl)-2-thioxo-2,3-dihydropyrimidin-4(1H)-one] | 4370 1/s per M
COc1ccc(-c2cc(=O)[nH]c(=S)n2CCOC(C)C)c(OC)c1 [Example 226, 6-(2,4-dimethoxyphenyl)-1-(2-isopropoxyethyl)-2-thioxo-2,3-dihydropyrimidin-4(1H)-one] | 6280 1/s per M
COc1ccc(F)cc1-c1cc(=O)[nH]c(=S)n1CCN.Cl [Example 26, 1-(2-aminoethyl)-6-(5-fluoro-2-methoxyphenyl)-2-thioxo-2,3-dihydropyrimidin-4(1H)-one hydrochloride] | 3180 1/s per M
CCOC(=O)Cn1c(-c2ccc(OC)cc2OC)cc(=O)[nH]c1=S [Example 221, ethyl [6-(2,4-dimethoxyphenyl)-4-oxo-2-thioxo-3,4-dihydropyrimidin-1(2H)-yl]acetate] | 6230 1/s per M

SMILES | MPO kinact/Ki
COCCn1c(-c2c(OC)cccc2OC)cc(=O)[nH]c1=S [Example 180, 6-(2,6-dimethoxyphenyl)-1-(2-methoxyethyl)-2-thioxo-2,3-dihydropyrimidin-4(1H)-one] | 6960 1/s per M
COc1ccc(F)cc1-c1cc(=O)[nH]c(=S)n1CCO [Example 28, 6-(5-fluoro-2-methoxyphenyl)-1-(2-hydroxyethyl)-2-thioxo-2,3-dihydropyrimidin-4(1H)-one] | 13700 1/s per M
O=c1cc(-c2ccccc2OCCO)n(CCO)c(=S)[nH]1 [Example 168, 6-[2-(2-hydroxyethoxy)phenyl]-1-(2-hydroxyethyl)-2-thioxo-2,3-dihydropyrimidin-4(1H)-one] | 8890 1/s per M
COc1ccc(-c2cc(=O)[nH]c(=S)n2CCNC(C)=O)c(OC)c1 [Example 215, N-{2-[6-(2,4-dimethoxyphenyl)-4-oxo-2-thioxo-3,4-dihydropyrimidin-1(2H)-yl]ethyl}acetamide] | 1920 1/s per M
COc1ccc(Cl)cc1-c1cc(=O)[nH]c(=S)n1CCN [Example 63, 1-(2-aminoethyl)-6-(5-chloro-2-methoxyphenyl)-2-thioxo-2,3-dihydropyrimidin-4(1H)-one hydrochloride] | 12200 1/s per M
COc1ccccc1-c1cc(=O)[nH]c(=S)n1CCN [Example 11, 1-(2-aminoethyl)-6-(2-methoxyphenyl)-2-thioxo-2,3-dihydropyrimidin-4(1H)-one hydrochloride] | 6880 1/s per M
COc1ccc(-c2cc(=O)[nH]c(=S)n2CC(C)C(N)=O)c(OC)c1 (centres unmarked) [Example 217, 3-[6-(2,4-dimethoxyphenyl)-4-oxo-2-thioxo-3,4-dihydropyrimidin-1(2H)-yl]-2-methylpropanamide] | 3940 1/s per M
COCCn1c(-c2ccc3[nH]ccc3c2)cc(=O)[nH]c1=S [Example 303, 6-(1H-indol-5-yl)-1-(2-methoxyethyl)-2-thioxo-2,3-dihydropyrimidin-4(1H)-one] | 5270 1/s per M
COCCn1c(-c2cccc(C)c2)cc(=O)[nH]c1=S [Example 283, 1-(2-methoxyethyl)-6-(3-methylphenyl)-2-thioxo-2,3-dihydropyrimidin-4(1H)-one] | 2790 1/s per M
COCCn1c(-c2ccc(C(=O)N(C)C)cc2)cc(=O)[nH]c1=S [Example 336, 4-[3-(2-methoxyethyl)-6-oxo-2-thioxo-1,2,3,6-tetrahydropyrimidin-4-yl]-N,N-dimethylbenzamide] | 589 1/s per M
COc1ccc(-c2cc(=O)[nH]c(=S)n2Cc2ccccc2)c(OC)c1 [Example 228, 1-benzyl-6-(2,4-dimethoxyphenyl)-2-thioxo-2,3-dihydropyrimidin-4(1H)-one] | 615 1/s per M
COCCn1c(-c2cn(C)c3ccccc23)cc(=O)[nH]c1=S [Example 67, 1-(2-methoxyethyl)-6-(1-methyl-1H-indol-3-yl)-2-thioxo-2,3-dihydropyrimidin-4(1H)-one] | 7520 1/s per M
COCCn1c(-c2ccc(OC)cc2OC)cc(=O)[nH]c1=S [Example 182, 6-(2,4-dimethoxyphenyl)-1-(2-methoxyethyl)-2-thioxo-2,3-dihydropyrimidin-4(1H)-one] | 8200 1/s per M
COc1ccc(-c2cc(=O)[nH]c(=S)n2CCNc2ncc[nH]2)c(OC)c1 [Example 249, 6-(2,4-dimethoxyphenyl)-1-[2-(1H-imidazol-2-ylamino)ethyl]-2-thioxo-2,3-dihydropyrimidin-4(1H)-one] | 1050 1/s per M
COc1ccc(-c2cc(=O)[nH]c(=S)n2CCC(=O)O)c(OC)c1 [Example 193, 3-[6-(2,4-dimethoxyphenyl)-4-oxo-2-thioxo-3,4-dihydropyrimidin-1(2H)-yl]propanoic acid] | 458 1/s per M
COc1ccc(-c2cc(=O)[nH]c(=S)n2CCO)c(OC)c1 [Example 3, 6-(2,4-Dimethoxyphenyl)-1-(2-hydroxyethyl)-2-thioxo-2,3-dihydropyrimidin-4(1H)-one] | 29300 1/s per M

Same assay, conditions: Table 1A, 2 μM H2O2, pH 7.4

SMILES | MPO kinact/Ki
COc1ccc(-c2cc(=O)[nH]c(=S)n2CC(=O)N2CC[C@@H](N)C2)c(OC)c1 [Example 389, 1-{2-[(3R)-3-aminopyrrolidin-1-yl]-2-oxoethyl}-6-(2,4-dimethoxyphenyl)-2-thioxo-2,3-dihydropyrimidin-4(1H)-one] | 4910 1/s per M
COc1ccc(-c2cc(=O)[nH]c(=S)n2CC(=O)N2CCNCC2)c(OC)c1 [Example 397, 6-(2,4-dimethoxyphenyl)-1-[2-oxo-2-(piperazin-1-yl)ethyl]-2-thioxo-2,3-dihydropyrimidin-4(1H)-one] | 4050 1/s per M
COc1ccc(-c2cc(=O)[nH]c(=S)n2CC(N)=O)c(OCCO)c1 [Example 420, 2-{6-[2-(2-hydroxyethoxy)-4-methoxyphenyl]-4-oxo-2-thioxo-3,4-dihydropyrimidin-1(2H)-yl}acetamide] | 5210 1/s per M
COc1ccc(-c2cc(=O)[nH]c(=S)n2CCC#N)c(OC)c1 [Example 408, 3-[6-(2,4-dimethoxyphenyl)-4-oxo-2-thioxo-3,4-dihydropyrimidin-1(2H)-yl]propanenitrile] | 9890 1/s per M
NC(=O)Cn1c(-c2ccccc2OCCO)cc(=O)[nH]c1=S [Example 349, 2-(6-(2-(2-Hydroxyethoxy)phenyl)-4-oxo-2-thioxo-3,4-dihydropyrimidin-1(2H)-yl)acetamide] | 3630 1/s per M

Reference: patent publication US9399626B2, “2-thiopyrimidinones” (Pfizer Inc., priority 2011, dated 2016)
